According to US8614237B2, “Benzofuran-4,5-diones as selective peptide deformylase inhibitors” (Sloan-Kettering Institute for Cancer Research, priority 2009, dated 2013):
Values belong to the compound of their own block, whether it stands above or below them.

Key:
HsPDF [1] = target: T1, HsPDF (Homo sapiens, UniProt Q9HBH1); assay: FLUO functional assay (fluorescamine, substrate fMAHA); assay type: biochemical; conditions: 0.5 μM HsPDF, upper limit 10 μM compound
T1 construct: A 63 amino acid N-terminally truncated human peptide deformylase (HsPDF); 6His (C); made in house; host or cells: E. coli BL21 (DE3), co-transformed with the GroES/EL chaperone plasmid
T1 sequence (Q9HBH1 64-243 limits assumed): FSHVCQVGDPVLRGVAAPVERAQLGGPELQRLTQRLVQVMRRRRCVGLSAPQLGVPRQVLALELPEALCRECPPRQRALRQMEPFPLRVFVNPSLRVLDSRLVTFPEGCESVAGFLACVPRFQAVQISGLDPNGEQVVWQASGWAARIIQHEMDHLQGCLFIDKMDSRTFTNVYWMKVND
Procedure: High controls consisted of 1% DMSO (v/v). […] The deformylation reaction mixture was incubated for one hour at room temperature. A separate set of plates containing 3 μL of fluorescamine at 1 mg/mL in 100% DMSO was prepared for the labeling step. Then, 17 μL of the reaction mixture from the original set of plates was transferred to the plates containing the fluorescamine solution for the labeling step. The readout was performed on a Perkin Elmer VICTOR^3 V™ Multi label counter, using an excitation wavelength of 355 nm, and an emission wavelength of 460 nm. […] Compounds inducing a variation of fluorescence greater than 20% were flagged as optically active compounds.
High controls consisted of 1% DMSO (v/v). […] The deformylation reaction mixture was incubated for one hour at room temperature. A separate set of plates containing 3 μL of fluorescamine at 1 mg/mL in 100% DMSO was prepared for the labeling step. Then, 17 μL of the reaction mixture from the original set of plates was transferred to the plates containing the fluorescamine solution for the labeling step. The readout was performed on a Perkin Elmer VICTOR3 V™ Multi label counter, using an excitation wavelength of 355 nm, and an emission wavelength of 460 nm.

[2] = system: panel of eight cancer cell lines; assay: Cytotoxicity profiling of 26 second generation derivatives (Alamar Blue viability assay, nuclei count); assay type: cell-based, human
Procedure: Cytotoxicity profiling for the 26 newly synthesized benzofuran-4,5-diones derivatives was performed on a panel of eight cancer cell lines.
The cell lines HL-60 (human acute promyelocytic leukemia), Jurkat (human acute T cell leukemia), Molt3 (acute lymphoblastic leukemia), CWR22 (prostate carcinoma), K562 (human chronic myeloid leukemia lymphoblasts), and Y79 (human retinoblastoma) were obtained from the ATCC, and cultured following ATCC recommendations. The cell line HL-60/RV+ (a P-glycoprotein-overexpressing multi-drug resistant HL-60 variant selected by continuous exposure to vincristine) was described elsewhere (Weisburg J H, Roepe P D, Dzekunov S, Scheinberg D A: Intracellular pH and multidrug resistance regulate complement-mediated cytotoxicity of nucleated human cells. J Biol Chem 1999; 274:10877-10888). The cell line ALL-3 (acute lymphoblastic leukemia isolated from a patient treated at MSKCC and characterized as Philadelphia chromosome positive) was obtained from Dr. Mark Frattini (MSKCC). The viability assay we used in this study is based on the dye resazurin and commercially sold as Alamar Blue (O'Brien J, Wilson I, Orton T, Pognan F: Investigation of the Alamar Blue (resazurin) fluorescent dye for the assessment of mammalian cell cytotoxicity. Eur J Biochem 2000; 267:5421-5426). Cells were added in 45 μL medium to the pre-plated compounds in 5 μL of 1% DMSO (v/v). After 72 h incubation was added 5 μL Alamar Blue. […] Plates were then fixed and nuclei were stained using Hoechst for the nuclear count proliferation assay. Imaging for Hoechst staining of nuclei count were acquired with an IN Cell Analyzer 2000 epifluorescence automated microscope ([…]) (GE Healthcare, Piscataway, N.J.) equipped with a 4× objective, using D360/40 excitation filter (360 nm excitation peak; +/−40 nm bandpass), HQ535/50 emission filter (535 nm emission peak; +/−50 nm bandpass) and Q505LP dichroic, and exposing fields for 200 milliseconds in the blue channel. Image analysis was conducted with the IN Cell Developer 1.7 software (GE Healthcare) using custom-developed analysis modules. The analysis module used for nuclei count performs object segmentation in the blue channel to automatically define and count the number of nuclei. Data is reported as the sum of imaged nuclei.
In addition of the Alamar Blue viability assay readout, for the adherent cell lines of this panel (CWR22 and Meso47) we performed a direct nuclei count to assess the effect of the novel derivatives on cell proliferation.

HsPDF [3] = target: T1, HsPDF; assay: FP binding assay (fluorescence polarization, probe SKI 267088), specificity profiling and dose response; conditions: for activity toward HsPDF, FP assay: specificity profiling / dose response
Procedure: Specificity profiling was performed on the newly synthesized benzofuran-4,5-diones using the aforementioned FP profiling method (Antczak et al., J. Biomol. Screen 2008, 13, 285-294).
Compounds or high/low controls were added to the wells at a volume of 2 μL. […] High controls consisted of 1% DMSO (v/v). MBP-HsPDF or the metalloprotease to be tested was diluted in the assay buffer (25 mM Hepes, 50 mM NaCl, 0.005% Tween 20, pH 7.5), and 10 μL where added to the 384-well microplates (Low Volume Round Bottom NBS Treated, Corning) to achieve a final concentration of 1 μM. After addition of MBP-HsPDF to the tested compounds, the 384-well microplates were preincubated for one hour at room temperature. Then 8 μL of the probe SKI 267088 in solution in assay buffer was added to the wells at a final concentration of 5 nM. After one hour incubation at room temperature, the fluorescence polarization was read using the Amersham LEADseeker™ Multimodality Imaging System equipped with Cy3 excitation/emission filters and Cy3 FP epi-mirror. Quench tests were performed in duplicate by measuring the fluorescence polarization of wells containing the probe, pre- and post-addition of the compounds at 100 μM.
In each assay, the signal inhibition induced by the compounds was expressed as a percentage compared to high and low controls located on the same plate, as defined as % Inhibition=(high control average−read value)/(high control average−low control average)×100. The dose response was assessed in duplicate and using 12 point doubling dilutions with 100 μM compound concentration as the upper limit. The dose response curve for each set of data was fitted separately, and the two IC50 values obtained were averaged.

EcPDF [4] = system: EcPDF
Procedure: Head of the field: EcPDF %I 100uM
(§4) Specificity profiling of the derivatives of benzofuran-4,5-diones.
Where the first naming reader finds the target: head: EcPDF %I 100uM

APN = APN %I 100uM
Procedure: (§1) Table printed on a drawing sheet, Figure 5
Head of the field: APN %I 100uM
(§2) Footnotes: -26 124 % inhibition
(§3) The patent's description of the figure: FIG. 5.
Where the first naming reader finds the target: head: APN %I 100uM

EcPDF [5] = system: EcPDF; remark: listed apart in the source
Procedure: Head of the field: EcPDF %I 10uM
as §4
Where the first naming reader finds the target: head: EcPDF %I 10uM

MMP-1 = MMP-1 %I 100uM
Procedure: as §1
Head of the field: MMP-1 %I 100uM
as §2, §3
Where the first naming reader finds the target: head: MMP-1 %I 100uM

[6] = system: panel of cancer cell lines; assay: Cytotoxicity assay (Alamar Blue), primary hits and first generation derivatives; assay type: cell-based, human; conditions: first generation, panel of nine cancer cell lines
Procedure: Cytotoxicity assays were performed in order to profile the thirty-three newly synthesized benzofuran-4,5-dione derivatives on a panel of nine cancer cell lines. A heat map summarizes the calculated IC50s ([…]). Twelve out of thirteen derivatives potent toward HsPDF were also cytotoxic toward several cancer cell lines (FIG. 7).
The cell lines HL-60 (human acute promyelocytic leukemia), Jurkat (human acute T cell leukemia), Molt3 (acute lymphoblastic leukemia), CWR22 (prostate carcinoma), HEK293 (human embryonic kidney), K562 (human chronic myeloid leukemia lymphoblasts), Y79 (human retinoblastoma) were obtained from the ATCC, and cultured following ATCC recommendations. The cell line NCEB-1 (human non-hodgkin lymphoma) was obtained from Dr. O'Connor (Sloan-Kettering Institute). The cell line HL-60/RV+ (a P-glycoprotein-overexpressing multi-drug resistant HL-60 variant selected by continuous exposure to vincristine) was described elsewhere (Weisburg et al., J. Biol. Chem. 1999, 274, 10877-10888). The cell line ALL-3 (acute lymphoblastic leukemia isolated from a patient treated at MSKCC and characterized as Philadelphia chromosome positive) was obtained from Dr. Mark Frattini (MSKCC). The assay used for the cytotoxicity studies is based on the dye resazurin and commercially sold as Alamar Blue (O'Brien et al., Eur. J. Biochem. 2000, 267, 5421-5426). […]

[7] = In vivo toxicity of benzofuran-4,5-diones; conditions: i.p. twice a day for four days, 1 to 10 mg/kg, monitored 14 days
Procedure: Lead compound SKC-BF-13 and another newly synthesized derivative SKC-BF-02 were selected in order to assess the in vivo toxicity of benzofuran-4,5-diones. Three mice per group were treated with BF-13 at three doses (i.e., 1, 5 and 10 mg/kg) or with SKC-BF-02 at two doses (i.e., 1 and 10 mg/kg). A control group of two mice were treated with the vehicle (i.e., 20% DMSO v/v). Mice were treated twice a day for four days via intraperitoneal administration. Their weight was monitored along with any other signs of toxicity for fourteen days.
ICR/SCID male mice about three weeks old were used in this study. Three mice per group were treated with BF-13 at three doses (i.e., 1, 5 and 10 mg/kg) or with SKC-BF-02 at two doses (i.e., 1 and 10 mg/kg). A control group of two mice were treated with the vehicle (20% DMSO v/v). Mice were treated twice a day for four days via intraperitoneal administration. Their weight was monitored as well as any other sign of toxicity for 14 days.
SKI 396848 (SKC-BF-12) and SKI 396840 (SKC-BF-02) were synthesized during the first round of exploratory chemistry to assess the in vivo toxicity of benzofuran-4,5-diones (as shown in FIG. 8). Three ICR/SCID male mice per group were treated with SKI 396848 at three doses: 1, 5 and 10 mg/kg or with SKI 396840 at two doses: 1 and 10 mg/kg. A control group of two mice was treated with the vehicle (20% DMSO v/v). Mice were treated twice a day for four days i.p. Their weight was monitored as well as any other sign of toxicity for 14 days. One treated mouse per group was evaluated by a pathologist.

IC50 (HsPDF [1]): 680 nM
SMILES: O=C(O)COc1ccc(C(=O)c2coc3c2C(=O)C(=O)C(Br)=C3Br)cc1 [SKI 417520, 2-(4-(6,7-dibromo-4,5-dioxo-4,5-dihydrobenzofuran-3-carbonyl)phenoxy)acetic acid]
activity against the cell lines of the panel, second generation [2]: not active toward most of the cell lines tested

IC50 (HsPDF [1]): 620 nM
SMILES: O=C(O)COc1ccc(C(=O)c2coc3c2C(=O)C(=O)C(Cl)=C3Cl)cc1 [SKI 417521, 2-(4-(6,7-dichloro-4,5-dioxo-4,5-dihydrobenzofuran-3-carbonyl)phenoxy)acetic acid]
activity against the cell lines of the panel, second generation [2]: not active toward most of the cell lines tested

IC50 (HsPDF [1]): 2300 nM
SMILES: O=C1C(=O)c2c(C(=O)c3ccc4c(c3)OCCO4)coc2C(Br)=C1Br [SKI 417504, 6,7-dibromo-3-(2,3-dihydrobenzo[b][1,4]dioxine-6-carbonyl)benzofuran-4,5-dione]

IC50 (HsPDF [1]): 1800 nM
SMILES: O=C1C(=O)c2c(C(=O)c3ccsc3)coc2C(Cl)=C1Cl [SKI 417512, 6,7-dichloro-3-(thiophene-3-carbonyl)benzofuran-4,5-dione]

IC50 (HsPDF [1]): 690 nM
SMILES: O=C1C(=O)c2c(C(=O)c3ccc(C(=O)O)cc3)coc2C(Cl)=C1Cl [SKI 417519, 4-(6,7-dichloro-4,5-dioxo-4,5-dihydrobenzofuran-3-carbonyl)benzoic acid]
activity against the cell lines of the panel, second generation [2]: not active toward most of the cell lines tested

The remaining lines, values behind:

SMILES: O=C1C=Cc2occ(C(=O)c3ccccc3)c2C1=O [SKC-BF-01, 3-Benzoyl-benzofuran-4,5-dione]
IC50 (HsPDF [3]; dose response, 12 point doubling dilutions, upper limit 100 μM): 59000 nM
selectivity for HsPDF in a panel of metalloproteases (HsPDF [3]; panel HsPDF, EcPDF, APN and MMP-1): most selective HsPDF inhibitors
EcPDF %I 100uM (EcPDF [4]): 32 %I
APN %I 100uM (APN): 5 %I

SMILES: COc1ccc(C(=O)c2coc3c2C(=O)C(=O)C(Cl)=C3Cl)cc1OC [SKC-BF-10, 6,7-Dichloro-3-(3,4-dimethoxy-benzoyl)-benzofuran-4,5-dione]
activity toward HsPDF, FP assay (HsPDF [3]): potent HsPDF inhibitor
EcPDF %I 10uM (EcPDF [5]): 24 %I
MMP-1 %I 100uM (MMP-1): 46 %I
cytotoxicity toward cancer cell lines [6]: not very active toward any cancer cell line tested

SMILES: COc1ccc(C(=O)c2coc3c2C(=O)C(=O)c2ccccc2-3)cc1 [SKC-NF-01, 3-(4-Methoxy-benzoyl)-naphtho[1,2-b]furan-4,5-dione]
activity toward HsPDF, FP assay (HsPDF [3]): inactive
EcPDF %I 10uM (EcPDF [5]): 30 %I
EcPDF %I 100uM (EcPDF [4]): 23 %I
APN %I 100uM (APN): 22 %I
MMP-1 %I 100uM (MMP-1): 27 %I

SMILES: COc1ccc(C(=O)c2coc3c2C(=O)C(=O)C=C3)cc1 [SKC-BF-02, 3-(4-Methoxy-benzoyl)-benzofuran-4,5-dione]
signs of toxicity in vivo (weight and other signs) [7]: none of the treatments induced any sign of toxicity
signs of toxicity in vivo (weight and other signs) ([7]; listed as SKI 396840): None of the treatments were found to induce any signs of toxicity
